Reference: patent publication US8030466B2, “3′-o-fluorescently modified nucleotides and uses thereof” (Korea Institute of Science and Technology, priority 2009, dated 2011)

Molecular target: T1, Therminator II DNA polymerase (Thermococcus sp., UniProt Q56366, A485L/D141A/E143A/Y409V)
T1 construct: purchased New England Biolabs, Inc. (printed for the ThermoPol II buffer; inferred for the enzyme)
Assay: Extension of DNA primer with MRT by polymerase (MALDI-TOF MS readout)
Type: biochemical
Procedure: The reaction was consisted of 20 cycles at 94° C. for 20 sec, 46° C. for 40 sec, and 60° C. for 90 sec. After the reaction, the mixture was incubated with strepatavidin-coated magnetic beads ([…], Dynabead MyOne, Invitrogen) in PBS buffer ([…]) at room temperature for 30 min.
After removing a fluorescent group from the 3′-end as the same manner as described in Example 4, the obtained DNA was purified by reverse-phased HPLC. The purified DNA was used as a primer for the second extension reaction with the MRT. The extension was performed by the same manner as described in Example 2. The resultant product was characterized using MALDI-TOF mass spectrometry (FIG. 3d).

T1 sequence (Q56366 whole entry D141A/E143A/Y409V/A485L): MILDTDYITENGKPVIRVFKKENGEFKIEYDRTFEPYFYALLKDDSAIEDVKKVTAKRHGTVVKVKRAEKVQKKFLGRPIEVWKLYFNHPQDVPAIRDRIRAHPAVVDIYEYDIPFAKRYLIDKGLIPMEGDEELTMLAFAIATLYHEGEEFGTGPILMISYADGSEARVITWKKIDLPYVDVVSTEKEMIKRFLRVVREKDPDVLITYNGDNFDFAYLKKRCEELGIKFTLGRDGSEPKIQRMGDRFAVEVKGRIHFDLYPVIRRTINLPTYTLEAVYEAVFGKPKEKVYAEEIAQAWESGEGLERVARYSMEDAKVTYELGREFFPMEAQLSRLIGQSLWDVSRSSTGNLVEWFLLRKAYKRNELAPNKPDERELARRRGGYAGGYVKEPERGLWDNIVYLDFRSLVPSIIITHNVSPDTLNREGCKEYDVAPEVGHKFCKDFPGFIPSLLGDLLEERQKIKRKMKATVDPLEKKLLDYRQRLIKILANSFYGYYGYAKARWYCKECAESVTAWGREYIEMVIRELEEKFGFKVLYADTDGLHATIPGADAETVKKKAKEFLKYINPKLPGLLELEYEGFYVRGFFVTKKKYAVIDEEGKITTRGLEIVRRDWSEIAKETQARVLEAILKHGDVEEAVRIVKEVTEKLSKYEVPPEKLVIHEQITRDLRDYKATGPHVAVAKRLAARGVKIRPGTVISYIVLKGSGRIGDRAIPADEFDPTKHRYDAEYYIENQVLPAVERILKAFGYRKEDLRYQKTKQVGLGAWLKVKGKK

3′-O-(7-hydroxycoumarin)-dTTP [Compound 13]
primer extension by MRT (biotinylated primer/template, 4 units Therminator II DNA polymerase, 20 cycles): the primer was extended by MRT | second primer extension by MRT after label elimination (deprotected, HPLC-purified extended primer used as primer, Therminator II DNA polymerase): the primer chain could be extended again by another MRT
